Test results as given in US20040258662A1, “Antineoplastic agents” (Wyeth, priority 2003, published 2004).

Assays:
[1] = test system: HTB-44 human renal tumor; test: HTB-44 human renal tumor xenograft test procedure in nude mice; format: in vivo; set-up: Tumor mass, % of vehicle control, Week 0 / Tumor mass, % of vehicle control, Week 2 / Tumor mass, % of vehicle control, Week 4: concentration or dose not given beside the values; conditions: for effect on tumor growth (in words): CCI-779 25 mg/kg iv weekly or IFN-α 1 million units ip 3 times per week; for Tumor mass, Week 0 / Tumor mass, Week 2 / Tumor mass, Week 4 / Tumor mass, Week 5: CCI-779 25 mg/kg iv once per week; for Tumor mass, Week 0 / Tumor mass, Week 2 / Tumor mass, Week 4: IFN-α 1 × 10^6 units ip 3 times per week; for Tumor mass, Week 0: 4 weeks, tumors about 600 mg at start; for Tumor mass, % of vehicle control, Week 0 / Tumor mass, % of vehicle control, Week 2 / Tumor mass, % of vehicle control, Week 4 / Tumor mass, % of vehicle control, Week 5: same dosing as the tumor mass values; for Tumor mass, Week 5: IFN-α 1 × 10^6 units ip 3 times per week for 4 weeks
Procedure: CCI-779 was evaluated in combination with Interferon-alpha (IFN-α) in the HTB44 human mouse xenograft standard pharmacological test procedure of renal cancer. The human renal cell line HTB-44 (also referred to in the scientific literature as A498) is derived from a patient with a clear cell carcinoma that had lost expression of the von Hippel-Lindau (VHL) gene. These types of tumors are representative of the large majority (≈80%) of sporadic renal cell carcinomas.
CCI-779 was evaluated as a single agent on a weekly schedule against large (>500mg) HTB-44 tumors in nude mouse xenografts. Dosing was from 10 mg/kg to 75 mg/kg intravenously once a week beginning on day 0 when tumors had reached a size of about 500 mm^3.
Similarly, a dose response of IFN-α as a single agent was performed. […] Therefore, a dose of 1 million units 3 times per week intraperitoneally was chosen to combine with CCI-779 at 25 mg/kg iv once per week. Groups of 10 mice were treated with CCI-779 alone, IFN-α alone, or the combination (Table 1). IFN-α was given on days 1, 3, and 5 and CCI-779 on day 6 of each week for 4 weeks. Dosing began after tumors had reached a size of about 600 mg.

[2] = test system: advanced RCC; test: Phase 1 open-label ascending-dose study of CCI-779 plus IFN in RCC patients; format: in vivo
Procedure: Thus, the combination of CCI-779 and IFN was evaluated in RCC patients (pts) in a phase 1 study.
In an open-label, ascending-dose, single-arm study, CCI-779 was given IV once weekly, with IFN given subcutaneously 3 times weekly. IFN was given alone the 1st treatment week. The starting dose levels were 6 million units (MU) IFN and 5 mg CCI-779. CCI-779 dose-escalation steps were 10 mg, 15 mg, and 25 mg. Once the maximum dose of CCI-779 is determined, the dose level of IFN can be escalated to 9 MU (at a reduced CCI-779 dose, if necessary). Dose escalation was based on a safety evaluation of pts (≧6/cohort) after 4 weeks of treatment.
Up to 40 patients are being evaluated at the maximum tolerated dose (MTD). In summary, 71 pts with advanced RCC were enrolled; 27 continue treatment. Patients (73% men, 27% women) had ECOG performance status of 0: 53% and 1: 46% and median age of 59 yrs (range, 35-80); 45% had prior IL-2 treatment. In dose escalation, patients received 6 MU IFNα with CCI-779 at 5 mg (7 pts), 10 mg (6), 15 mg (6), 20 mg (6), or 25 mg (7); 6 pts also received 9 MU IFNα with 15 mg CCI-779. […] To date, 33 additional patients have been accrued at the MTD. […] CCI-779-related adverse events with overall frequency ≧5% (n=53) were leukopenia (25%), hyperlipidemia (15%), asthenia (13%), AST increase (8%), mucositis (6%), anemia (6%), thrombocytopenia (6%), and rash (6%). Four patients were removed from study due to CCI-779-related toxicity. Approximately 50% of MTD patients have required CCI-779 dose reductions in subsequent cycles. Median time on treatment for all cohorts was 7 mo, 36 have continued for >6 mo of whom 9 have continued for >12 mo. Preliminary tumor responses (RECIST) in 55 pts were confirmed partial response, 7 pts (13%); stable disease, 39 (71%, 19 pts ≧6 mo); and progressive disease, 9 (16%).

[3] = Stability of CCI-779 in parenteral cosolvent formulation; format: physicochemical; conditions: citric acid at a concentration of less than 0.01% w/v
Excerpt: In this embodiment, the stability of CCI-779 in parenterally acceptable alcoholic cosolvents is enhanced by addition of an antioxidant to the formulation. Acceptable antioxidants include, but are not limited to, citric acid, d,l-α-tocopherol, BHA, BHT, monothioglycerol, ascorbic acid, propyl gallate, and mixtures thereof. Generally, the parenteral formulations useful in this embodiment of the invention will contain an antioxidant component(s) in a concentration ranging from 0.001% to 1% w/v, or 0.01% to 0.5% w/v, of the cosolvent concentrate, although lower or higher concentrations may be desired. Of the antioxidants, d,l-α-tocopherol is particularly desirable and is used at a concentration of 0.01 to 0.1% w/v with a preferred concentration of 0.075% w/v of the cosolvent concentrate.
Examples of such chelating agents include, e.g., citric acid, acetic acid, and ascorbic acid (which may function as both a classic antioxidant and a chelating agent in the present formulations). Other chelating agents include such materials as are capable of binding metal ions in solution, such as ethylene diamine tetra acetic acid (EDTA), its salts, or amino acids such as glycine are capable of enhancing the stability of CCI-779. […] Optimal concentrations for the selected antioxidant(s) can be readily determined by one of skill in the art, based upon the information provided herein.

[4] = test system: tumor cells; conditions: cited from earlier work
[5] = test system: human tumor xenografts; conditions: nude mice, cited from earlier work
[6] = test system: human glioblastoma cell line; conditions: in vitro; cited from earlier work

## CO[C@H]1C[C@@H]2CC[C@@H](C)[C@@](O)(O2)C(=O)C(=O)N2CCCC[C@H]2C(=O)O[C@H]([C@H](C)C[C@@H]2CC[C@@H](OC(=O)C(C)(CO)CO)[C@H](OC)C2)CC(=O)[C@H](C)/C=C(\C)[C@@H](O)[C@@H](OC)C(=O)[C@H](C)C[C@H](C)/C=C/C=C/C=C/1C [CCI-779, Rapamycin 42-ester with 3-hydroxy-2-(hydroxymethyl)-2-methylpropionic acid]
[1]; single agent, 10 mg/kg to 75 mg/kg iv once a week, tumors about 500 mm^3 on day 0, all doses
  inhibition of tumor growth: 30-35%
[1]; single agent, 75 mg/kg
  tumor regression at three fold higher dose: did not induce tumor regression
[1]; single agent
  effect on tumor growth (in words): retardation of tumor growth without tumor regression
[1]
  Tumor mass, Week 0: 589 mg
  Tumor mass, % of vehicle control, Week 0: 100%
  Tumor mass, Week 2: 825 mg
  Tumor mass, % of vehicle control, Week 2: 80%
  Tumor mass, Week 4: 1382 mg
  Tumor mass, % of vehicle control, Week 4: 69%
  Tumor mass, Week 5: 1539 mg
  Tumor mass, % of vehicle control, Week 5: 68%
[2]; at MTD 15 mg CCI-779, 6 MU IFNα
  MTD patients requiring CCI-779 dose reductions in subsequent cycles: Approximately 50%
[2]; both, human, in vivo
  Grade 34 CCI-779-related adverse events, frequency: AST increase: 8%
  Grade 34 CCI-779-related adverse events, frequency: anemia: 6%
  Grade 34 CCI-779-related adverse events, frequency: asthenia: 13%
  Grade 34 CCI-779-related adverse events, frequency: hyperlipidemia: 15%
  Grade 34 CCI-779-related adverse events, frequency: leukopenia: 25%
  Grade 34 CCI-779-related adverse events, frequency: mucositis: 6%
  Grade 34 CCI-779-related adverse events, frequency: rash: 6%
  Grade 34 CCI-779-related adverse events, frequency: thrombocytopenia: 6%
[2]; human, in vivo
  CCI-779-related adverse events, frequency: anemia: 33%
  CCI-779-related adverse events, frequency: anorexia: 33%
  CCI-779-related adverse events, frequency: asthenia: 39%
  CCI-779-related adverse events, frequency: chills: 22%
  CCI-779-related adverse events, frequency: diarrhea: 28%
  CCI-779-related adverse events, frequency: fever: 22%
  CCI-779-related adverse events, frequency: hyperlipidemia: 28%
  CCI-779-related adverse events, frequency: leukopenia: 22%
  CCI-779-related adverse events, frequency: nausea: 39%
  CCI-779-related adverse events, frequency: taste perversion: 22%
  Gr 3-4 CCI-779-related AEs: hyperglycemia, number of pts: 2 pts
  Gr 3-4 CCI-779-related AEs: hyperlipidemia, number of pts: 4 pts
  Gr 3-4 CCI-779-related AEs: leukopenia, number of pts: 3 pts
  patients removed from study due to CCI-779-related toxicity: Four
[2]; preliminary results, n=18, CCI-779 5-25 mg IV once weekly with IFN 6 MU sc 3 times weekly
  CCI-779-related adverse events, frequency: mucositis: 44%
[2]; preliminary results, n=18, with IFN
  CCI-779-related adverse events, frequency: allergic reaction: 22%
[3]
  stability of CCI-779 with citric acid: enhanced the stability
[4]; CNS cancer, leukemia (T-cell), breast, prostate and melanoma lines most sensitive
  growth of tumor cells in vitro: inhibit the growth of a number of histologically diverse tumor cells
[4]; in vitro
  cell cycle effect: arrested cells in the G1 phase of the cell cycle
[5]
  activity in orthotopic glioma model: active
[5]; gliomas particularly sensitive
  activity against human tumor xenografts: activity against human tumor xenografts of diverse histological types
[6]
  growth factor (platelet-derived)-induced stimulation of human glioblastoma cell line: markedly suppressed

## Interferon α [reference compound]
[1]; 1 million units or 0.5 million units 3 times per week, data not shown
  single agent dose response, effectiveness: similarly effective
[1]; single agent
  effect on tumor growth (in words): retardation of tumor growth without tumor regression
[1]
  Tumor mass, Week 0: 586 mg
  Tumor mass, % of vehicle control, Week 0: 100%
  Tumor mass, Week 2: 682 mg
  Tumor mass, % of vehicle control, Week 2: 66%
  Tumor mass, Week 4: 957 mg
  Tumor mass, % of vehicle control, Week 4: 48%
  Tumor mass, Week 5: 1280 mg
  Tumor mass, % of vehicle control, Week 5: 57%
